pIC50: −log10 of the molar value.
Experiments:
[1] = molecular target: T1, KRasG12V (Homo sapiens, UniProt P01116, G12V); assay: nanobar-guided KRasG12V clustering (Enrichment Index) in U2OS cells; assay type: cell-based; details: for Enrichment Index (EI) of KRasG12V: mean±s.e.m.
T1 construct: through full-length KRasG12V, HRasG12V and the truncated Ras isoforms tK-Ras and tH-Ras; expressed in transfected cells; host or cells: U2OS
Description: Arrays of nanostructures on SiO2 surface of bar shape are fabricated with two curved ends and flat sidewalls using electron beam lithography (EBL). […] To conduct EBL, the chips are spin-coated with an electron-sensitive layer, 300 nm of positive electron-beam resist poly (methyl methacrylate) (PMMA) (MicroChem), followed by a conductive polymer layer of AR-PC 5090.02 (Allresist). Desired patterns are then written on the polymer through exposure to EBL (FEI Helios NanoLab), and developed in isopropanol:methylisobutylketone (IPA:MIBK)=3:1 solution. Subsequently, a 30-nm chromium (Cr) mask is deposited onto the surface via thermal evaporation (UNIVEX 250 Benchtop) and lift-off in acetone. Nanostructures are generated through reactive ion etching with the mixture of CF4 and CHF3 (Oxford Plasmalab 80). After fabrication, scanning electron microscopy (SEM) (FEI Helios NanoLab) imaging can be performed after 10-nm Cr coating to measure the dimensional properties of nanostructures (FIG. 1, top). Before use, the nanostructured-chip is cleaned by Chromium Etchant (Sigma-Aldrich) to remove the remaining metal layer.
To culture the cells onto the nanostructured chip, the chip is first cleaned by air plasma treatment (Harrick Plasma) and sterilized by UV radiation. Additional coating reagents like extracellular matrix (ECM) protein components (e.g., fibronectin or gelatin, Sigma-Aldrich) can be added to promote cell attachment. After coating, the cells are plated and maintained in DMEM (Gibco) supplemented with fetal bovine serum (FBS, Life Technologies) and Penicillin-Streptomycin (Life Technologies) in a standard incubator at 37° C. with 5% CO2.
The Ras proteins can be expressed transiently by transfecting the fluorescent protein-tagged Ras plasmid (e.g., EGFP-KRasG12V, EGFP, enhanced green fluorescent protein) into cells using the Lipofectamine (Life Technologies) protocol or electroporation (e.g., Neon Transfection System, Thermo Fisher). If necessary, the transfection parameters (e.g., the amount of the plasmid, starvation time and expression time) and electroporation parameters (e.g., pulse voltage, pulse width, pulse number) can be optimized to reach the expected transfection efficiency and expression level. FBS can be removed at the expression step from the culture medium to prevent Ras activation.
To evaluate the effect of a Ras inhibitor on disrupting the Ras clusters, a gradient concentration and several treatment durations can be selected to determine the effective window. A control group with no treatment should be conducted at the same time. Before and after treatment of the same batch of cells can also be compared.
Cell imaging is performed with laser scanning confocal microscopy (Zeiss LSM 800 with Airyscan) and a Plan-Apochromat 100×/1.4 oil objective. EGFP is excited at 488 nm and detected at 490-570 nm. RFP is excited at 561 nm and detected at 570-645 nm. Images were taken with a resolution of 512×512 pixels, 16-bit and 124 nm pixel size. A scanning speed of 20 s/image and an averaging mode of 4 times/line can be applied. During imaging, the cells are maintained in live cell imaging solution (Thermo Fisher) at 37° C. in an on-stage incubator. […] The images are conducted with a single snap shot for display of Ras variants and the quantification. For the imaging of co-expressed K-Ras variants and CRaf-RBD, z-stack images can be taken and averaged for display and the intensity profiles. The calculation of Pearson correlation coefficient is also based on single snap shot.
To quantify the nanobar-guided clustering of Ras variants, the fluorescence intensity ratio at the nanobar end to the flat sidewall (i.e. Enrichment Index, EI) is calculated. The background signals of each image are firstly subtracted by the rolling ball algorithm in ImageJ (radius=3 pixels for 250 nm diameter nanobars). Next, the nanobars covered by the cell to be analyzed are identified by a custom-written MATLAB (MathWorks) code. […]

[2] = molecular target: T2, HRasG12V (Homo sapiens, UniProt P01112, G12V); assay: nanobar-guided HRasG12V clustering (Enrichment Index) in U2OS cells; assay type: cell-based
T2 construct: through full-length KRasG12V, HRasG12V and the truncated Ras isoforms tK-Ras and tH-Ras; expressed in transfected cells; host or cells: U2OS
Description: Arrays of nanostructures on SiO2 surface of bar shape are fabricated with two curved ends and flat sidewalls using electron beam lithography (EBL). […] To conduct EBL, the chips are spin-coated with an electron-sensitive layer, 300 nm of positive electron-beam resist poly (methyl methacrylate) (PMMA) (MicroChem), followed by a conductive polymer layer of AR-PC 5090.02 (Allresist). Desired patterns are then written on the polymer through exposure to EBL (FEI Helios NanoLab), and developed in isopropanol:methylisobutylketone (IPA:MIBK)=3:1 solution. Subsequently, a 30-nm chromium (Cr) mask is deposited onto the surface via thermal evaporation (UNIVEX 250 Benchtop) and lift-off in acetone. […]
Cell imaging is performed with laser scanning confocal microscopy (Zeiss LSM 800 with Airyscan) and a Plan-Apochromat 100×/1.4 oil objective. EGFP is excited at 488 nm and detected at 490-570 nm. RFP is excited at 561 nm and detected at 570-645 nm. […] The images are conducted with a single snap shot for display of Ras variants and the quantification. […]
To quantify the nanobar-guided clustering of Ras variants, the fluorescence intensity ratio at the nanobar end to the flat sidewall (i.e. Enrichment Index, EI) is calculated. […] Next, the nanobars covered by the cell to be analyzed are identified by a custom-written MATLAB (MathWorks) code. […]

[3] = molecular target: T3, K-Ras (Homo sapiens, UniProt P01116); details: Hela cells, 4 hrs; read-out: IC50, NanoBit assay measuring K-Ras activation; cited from earlier work
T3 construct: host or cells: HeLa

[4] = test system: HCT-116 cells; details: 24 hrs, read-out: IC50, MTT assay growth inhibition; cited from earlier work
[5] = test system: ASPC-1 cells; details: 24 hrs, read-out: IC50, MTT assay growth inhibition; cited from earlier work
[6] = test system: Calu-1 cells; details: 24 hrs, read-out: IC50, MTT assay growth inhibition; cited from earlier work

SMILES: COc1ccc([C@@]23Oc4cc(OC)cc(OC)c4[C@]2(O)[C@H](O)[C@H](C(=O)N(C)C)[C@H]3c2ccccc2)cc1 [rocaglamide]
- detection limit: concentration at which effect on KRasG12V clustering is detected ([1]; 1 hr treatment): 25 nM
- pIC50 ([1]; KRasG12V, 1 hr, one-phase decay fit of EI, read-out: IC50 of the nanobar assay, effect on K-Ras clustering): 7.73
- effect on bar-end accumulated clustering of KRasG12V ([1]; drug treatment vs DMSO, U2OS cells on nanobars): significant reduction
- Enrichment Index (EI) of KRasG12V ([1]; rocaglamide 25 nM, 1 hr): 1.64±0.018
- detection time: treatment time giving significant reduction of KRasG12V clustering ([1]; rocaglamide 50 nM): 15 min
- Enrichment Index (EI) of KRasG12V ([1]; rocaglamide 50 nM, 15 mins): 1.72±0.032
- Enrichment Index (EI) of KRasG12V ([1]; rocaglamide 50 nM, 1 hr): 1.55±0.021
- Enrichment Index (EI) of KRasG12V ([1]; rocaglamide 50 nM, 4 hrs): 1.64±0.024
- Enrichment Index (EI) of KRasG12V ([1]; rocaglamide 100 nM, 1 hr, U2OS cells): 1.58±0.027
- Enrichment Index (EI) of HRasG12V ([2]; rocaglamide 100 nM, 4 hrs, U2OS cells, mean±s.e.m.): 1.87±0.029
- effect on bar-end accumulated clustering of HRasG12V ([2]; same drug treatment vs DMSO, U2OS cells on nanobars): no obvious changes
- pIC50 [3]: 7.61
- pIC50 [4]: 8.02
- pIC50 [5]: 7.99
- pIC50 [6]: 7.92

Reference: US20250035634A1, “A METHOD FOR DETECTING CLUSTERING OF RAS PROTEIN” (Nanyang Technological University, priority 2021, published 2025)
